Values of other authors, collected in article PMC11901578, “Polymethoxyflavones and Bone Metabolism” (Nutrients, 2025).
pIC50: −log10 of the molar value. Where two headings read alike, the source gives them in different places.

Assays:
zebrafish embryos = test system: zebrafish embryos; parameters: method as in PMID 22707269; settings: 30 μM, cited from earlier work
[1] = test system: human umbilical vein endothelial cells (HUVECs); parameters: method as in PMID 22707269; settings: read-out: IC50, anti-proliferative effect on HUVECs; cited from earlier work
Raw264.7 = settings: RANKL +, cited from earlier work; for pIC50: read-out: IC50, osteoclast differentiation in Raw264.7 cultures
[2] = test system: osteoclast differentiation in co-cultures of osteoblasts and bone marrow cells; settings: cited from earlier work; for pIC50: IL-1 +, read-out: IC50, osteoclast differentiation in co-culture system; for inhibitory effect on IL-1-induced osteoclast differentiation relative to nobiletin and tangeretin, respectively: TRAP-positive osteoclasts
[3] = test system: human periodontal ligament cells (HPDLCs); settings: TNF-α, human periodontal ligament cells; cited from earlier work
[4] = test system: bone marrow macrophage (BMM) cultures; settings: 2, 10, and 50 μM; cited from earlier work
[5] = test system: rheumatoid synovial fibroblasts (RASFs); parameters: method as in doi:10.3329/bjp.v10i3.22865; settings: 50 and 100 μM; cited from earlier work
HL-60 cells = test system: HL-60 cells; parameters: method as in PMID 23225422; settings: read-out: IC50, anti-proliferative effect on HL-60 cells; cited from earlier work
CIA rats = test system: CIA rats; parameters: method as in PMID 31344704; settings: daily oral administration for 14 days; cited from earlier work
[6] = test system: osteoclast differentiation in co-culture system; settings: LPS +, 30 μM; cited from earlier work
[7] = test system: alveolar bone loss in mice; settings: LPS +, cited from earlier work
[8] = test system: osteoclast differentiation; parameters: method as in PMID 22850615; settings: 30 μM; cited from earlier work
[9] = test system: bone resorption in mouse calvarial or alveolar bone organ cultures; settings: 30 μM, mouse calvarial or alveolar bone organ cultures; cited from earlier work
[10] = test system: IL-1β mRNA expression in the hippocampus; parameters: method as in PMID 25884208; settings: mice, subcutaneous 100 mg/kg; cited from earlier work
serum TNF-α levels = test system: serum TNF-α levels; parameters: method as in PMID 18816060; settings: rats, intraperitoneal 100 mg/kg; cited from earlier work
[11] = test system: osteoclast differentiation; parameters: method as in PMID 26044862; settings: 20 μM, compared to 20 μM laricitrin and 20 μM myricetin; cited from earlier work
[12] = test system: periodontal ligament cells; parameters: method as in PMID 38734708; settings: 2.5, 5, and 10 μM; cited from earlier work
[13] = test system: BTB and CNC homology 1 (BACH1); parameters: method as in PMID 38734708; settings: cited from earlier work
[14] = test system: rats with ligature-induced periodontitis; parameters: method as in PMID 38734708; settings: oral 5, 10, and 20 mg/kg/day for 3 weeks; cited from earlier work
DMM-OA mice = settings: DMM-OA mice, oral 50 mg/kg/day for 8 weeks; cited from earlier work

For COc1ccc([C@@H]2CC(=O)c3c(O)cc(O)cc3O2)cc1O [Hesperetin, reference compound], which “anti-angiogenic effect on zebrafish embryos, inhibited” value (“anti-angiogenic effect … inhibited” for short) (zebrafish embryos; listed as hesperitin) is on record?
The value was ~30%.

What about the “anti-angiogenic effect … inhibited” value (zebrafish embryos) of the same compound?
Its value is 30% inhibited [47].

And the pIC50 [1]?
The pIC50 was < 4.00.

With COc1c(OC)c(OC)c2c(=O)cc(-c3ccc(O)cc3)oc2c1OC [4′-Demethyltangeretin, 4′-Hydroxy-5,6,7,8-Tetramethoxyflavone] as the compound, how does the pIC50 (Raw264.7) read?
Its pIC50 is 5.15.

What about the pIC50 [2] of the same compound?
The pIC50 was 4.74.

What about the “inhibitory effect on IL-1-induced osteoclast differentiation relative to nobiletin and tangeretin, respectively” value [2] of the same compound?
The value was “potent inhibitory effects”.

With COc1cc(-c2cc(=O)c3c(O)c(OC)c(O)c(OC)c3o2)ccc1O [Sudachitin, 4′,5,7-Trihydroxy-3′,6,8-trimethoxyflavone] as the compound, how does the “production of MMP-1 and MMP-3” value [3] read?
The value was “reduced the production”.

What about the RANKL-induced osteoclast differentiation [4] of the same compound?
Its RANKL-induced osteoclast differentiation is “dose-dependently suppressed”.

With O=c1cc(-c2ccc(O)cc2)oc2cc(O)c(O)c(O)c12 [Scutellarein] as the compound, how does the pIC50 [1] read?
Its pIC50 is < 4.00.

With COc1ccc(-c2cc(=O)c3c(OC)c(OC)c(OC)cc3o2)cc1 [Scutellarein tetra-methylether] as the compound, how does the pIC50 [1] read?
The pIC50 was < 4.00.

With COc1ccc(-c2cc(=O)c3c(OC)c(OC)c(OC)c(OC)c3o2)cc1 [Tangeretin, 4′,5,6,7,8-Pentamethoxyflavone] as the compound, how does the “proliferation of rheumatoid synovial fibroblasts (RASFs)” value [5] read?
Its value is “significantly inhibits”.

And the pIC50 (HL-60 cells)?
The pIC50 was 4.49.

And the “oxidative stress and inflammation” value (CIA rats)?
Its value is “reduced oxidative stress and inflammation”.

And the “osteoclast differentiation in Raw264.7 cultures, inhibited” value (Raw264.7; 30 μM)?
Its value is 71% inhibited [8].

What about the pIC50 (Raw264.7) of the same compound?
The pIC50 was 4.80.

And the “osteoclast differentiation in co-culture system, inhibited” value [6]?
The value was 94% inhibited [8].

And the “alveolar bone loss in mice, restored” value ([7]; 30 μg/mouse)?
Its value is 0% restored [8].

And the “alveolar bone loss in mice, restored” value ([7]; 100 μg/mouse)?
Its value is 2% restored [8].

What about the “alveolar bone loss in mice, restored” value ([7]; 500 μg/mouse) of the same compound?
The value was 4% restored [8].

And the pIC50 [2]?
The pIC50 was 4.74.

What about the “suppression of osteoclast differentiation induced by IL-1, LPS, or soluble RANKL (sRANKL)” value [8] of the same compound?
Its value is 70–90%.

Which “inhibition of LPS-induced bone resorption” value [9] does the source give for COc1ccc(-c2oc3c(OC)c(OC)c(OC)c(OC)c3c(=O)c2OC)cc1OC [Heptamethoxyflavone, 3,3′,4′,5,6,7,8,-Heptamethoxyflavone] here?
Its value is > 90%.

And the “IL-1β mRNA expression in the hippocampus” value [10]?
Its value is “downregulates”.

What about the pIC50 (HL-60 cells) of the same compound?
The pIC50 was 4.20.

What about the “serum TNF-α levels” value (serum TNF-α levels) of the same compound?
The value was “reduced serum TNF-α levels”.

With COc1ccc(-c2oc3c(OC)c(OC)c(OC)c(OC)c3c(=O)c2O)cc1OC [Natsudaidain, 3′,4′,5,6,7,8-Hexamethoxy-3-hydroxyflavone] as the compound, how does the pIC50 (HL-60 cells) read?
The pIC50 was 5.30.

With COc1cc(-c2oc3cc(O)cc(O)c3c(=O)c2O)cc(OC)c1O [Syringetin, 3,4′,5,7-Tetrahydroxy-3′,5′-dimethoxyflavone] as the compound, how does the “inhibitory effect on M-CSF-/RANKL-induced osteoclast differentiation” value [11] read?
Its value is “strongest inhibitory effect”.

With COc1ccc(-c2cc(=O)c3c(OC)c(OC)c(OC)cc3o2)cc1OC [Sinensetin, 3′,4′,5,6,7-Pentamethoxyflavone] as the compound, how does the “anti-angiogenic effect … inhibited” value (zebrafish embryos; listed as sinensetin) read?
The value was “approximately 95%”.

What about the “anti-angiogenic effect … inhibited” value (zebrafish embryos) of the same compound?
The value was 95% inhibited [47].

What about the pIC50 (HL-60 cells) of the same compound?
Its pIC50 is < 3.40.

And the “oxidative stress and inflammation” value [12]?
Its value is “dose-dependently reduced”.

And the “binding to BACH1” value [13]?
Its value is “directly binds”.

What about the alveolar bone resorption [14] of the same compound?
The alveolar bone resorption was “suppressed alveolar bone resorption”.

What about the pIC50 [1] of the same compound?
The pIC50 was 4.62.

What about the disease progression (DMM-OA mice) of the same compound?
The disease progression was “protects against disease progression”.

Which results are given for COc1cc(-c2cc(=O)c3c(OC)c(OC)c(OC)c(OC)c3o2)ccc1O [4′-Demethylnobiletin, 4′-Hydroxy-3′,5,6,7,8-Pentamethoxyflavone]?
pIC50 (Raw264.7): 6.00; pIC50 [2]: 4.89; inhibitory effect on IL-1-induced osteoclast differentiation relative to nobiletin and tangeretin, respectively [2]: potent inhibitory effects
